One series has as its system TNF a. The series can be described thus: LPS stimulation of human PBMs, TNF a by ELISA. In kind it is cell-based. To be noted: LPS-stimulated human PBMs, TNF cell assay; read-out: Human PBM Assay IC50. The method, then: Human whole blood was collected in Vacutainer tubes containing EDTA as an anticoagulant. A blood sample (7 ml) was carefully layered over 5 ml PMN Cell Isolation Medium (Robbins Scientific) in a 15 ml round bottom centrifuge tube. The sample was centrifuged at 450-500×g for 30-35 minutes in a swing out rotor at room temperature. After centrifugation, the top band of cells were removed and washed 3 times with PBS w/o calcium or magnesium. The cells were centrifuged at 400×g for 10 minutes at room temperature. The cells were resuspended in Macrophage Serum Free Medium (Gibco BRL) at a concentration of 2 million cells/ml.
Compounds were dissolved in DMSO initially and diluted in TCM for a final-concentration of 0.1% DMSO. LPS (Calbiochem, 20 ng/ml, final concentration) was then added at a volume of 0.010 ml. Cultures were incubated overnight at 37° C. Supernatants were then removed and tested by ELISA for TNF a and IL1-b. Viability was analyzed using MTS. After 0.1 ml supernatant was collected, 0.0,20 ml MTS was added to remaining 0.1 ml cells.

The test system of a further series is TNF-α. The series can be described thus: LPS stimulation of TNF production by U937 cells. In kind it is cell-based, human. To be noted: Homo sapiens, U-937, LPS-stimulated U937 cells; read-out: U937 Cell Assay IC50. Summed up:
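PMA-differentiated human U937 cells (20 ng/ml PMA, 24 h, then 24-48 h rest) at 2 million cells/ml, 0.1% DMSO final, stimulated with E. coli LPS (100 ng/ml final) for 4 h at 37° C. TNF-α in medium measured by ELISA; IC50 in μM.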

The next series concerns the target T1, human p38 kinase alpha (Homo sapiens, UniProt Q16539).
T1 construct: The coding region of the human p38a cDNA was obtained by PCR-amplification from RNA isolated from the human monocyte cell line THP.1; GST (N); made in house; host or cells: E. coli DH10B
Put plainly: p38 kinase in vitro assay, phosphorylation of biotinylated PHAS-I with gamma 32P-ATP. In kind it is biochemical. The settings on record: activated human p38 kinase alpha, PHAS-I substrate, 50 μM unlabeled ATP; read-out: p38 kinase IC50. In a few lines:
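MKK6-activated human p38α phosphorylates biotinylated PHAS-I with γ-32P-ATP in 25 mM HEPES pH 7.5, 10 mM Mg acetate, 50 μM unlabeled ATP, 1% DMSO, 30 °C for 1 h or overnight. Compounds at 100–0.001 μM (10-fold steps, triplicate); substrate captured on streptavidin filter plates and counted by scintillation.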

pIC50: −log10 of the molar value.

T1 sequence (Q16539 whole entry): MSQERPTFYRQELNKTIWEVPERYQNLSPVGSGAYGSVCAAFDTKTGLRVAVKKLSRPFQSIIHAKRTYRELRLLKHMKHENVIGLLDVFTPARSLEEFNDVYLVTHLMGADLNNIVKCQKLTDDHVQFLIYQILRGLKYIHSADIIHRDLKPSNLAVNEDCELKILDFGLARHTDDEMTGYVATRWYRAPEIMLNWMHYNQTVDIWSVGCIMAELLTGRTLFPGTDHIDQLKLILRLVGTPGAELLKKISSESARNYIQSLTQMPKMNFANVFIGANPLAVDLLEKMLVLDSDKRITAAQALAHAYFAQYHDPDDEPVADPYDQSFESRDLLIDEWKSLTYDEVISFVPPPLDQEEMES

In the case of `Cc1n[nH]c(-c2cccc(O)c2)c1-c1ccncc1` [Example A-17, 3-[3-methyl-4-(4-pyridinyl)-1H-pyrazol-4-yl]phenol], in the series on TNF a, the negative logarithm of the IC50 (pIC50) is 5.96. With `Cc1n[nH]c(-c2ccc(Cl)cc2)c1-c1ccncc1` [Example A-7, 4-(3-(4-chlorophenyl)-5-methyl-1H-pyrazol-4-yl)pyridine], the negative logarithm of the IC50 (pIC50) in the series on TNF-α and in the series on TNF a was 6.70 throughout.

Take `Cc1n[nH]c(-c2cccc(OCc3ccccc3)c2)c1-c1ccncc1` [Example A-14, 4-[3-methyl-5-[3-(phenylmethoxy)phenyl]-1H-pyrazol-4-yl]pyridine]: the pIC50 with TNF a was 5.92. With `Cc1n[nH]c(-c2ccccc2)c1-c1ccncc1` [Example A-2, 4-(3-methyl-5-phenyl-1H-pyrazol-4-yl)pyridine], the melting point is 212 to 214 °C. In addition, the negative logarithm of the IC50 (pIC50) in the series with TNF-α was 6.24. Also, on human p38 kinase alpha, the pIC50 is 5.82. In addition, the pIC50 in the series with TNF a is 5.80. For the compound `Cc1n[nH]c(-c2ccc3c(c2)OCO3)c1-c1ccncc1` [Example A-10, 4-[5-(1,3-benzodioxol-5-yl)-3-methyl-1H-pyrazol-4-yl]pyridine], the pIC50 is 5.77 with TNF-α and 6.15 in the series on TNF a. On to `COc1ccc(-c2[nH]nc(C)c2-c2ccncc2)cc1F` [Example A-1, 4-[5-(3-fluoro-4-methoxyphenyl)-3-methyl-1H-pyrazol-4-yl]pyridine], for which the negative logarithm of the IC50 (pIC50) at human p38 kinase alpha was 5.34; in the series on TNF a it was 6.30. The like results for `CCc1[nH]nc(-c2cccc(C)c2)c1-c1ccncc1` [Example A-45] were, in that order, greater than 7.00 and greater than 7.00.

For `Cc1n[nH]c(C2CCCCC2)c1-c1ccncc1` [Example A-24], the pIC50 with TNF a is 5.09. Compound `CN(C)c1n[nH]c(-c2ccc(F)cc2)c1-c1ccncc1` [Example A-19, 5-(4-fluorophenyl)-N, N-dimethyl-4-(4-pyridinyl)-1H-pyrazol-3-amine] yielded a melting point of 245 to 247 °C. Also, in the series with TNF-α, the pIC50 is 6.32. The pIC50 in the series with TNF a was 6.52. For `Cc1cccc(-c2[nH]nc(C)c2-c2ccncc2)c1` [Example A-8], the pIC50 at human p38 kinase alpha and with TNF a was greater than 7.00 in each case. As to `Cc1ccc(C)c(-c2[nH]nc(C)c2-c2ccncc2)c1` [Example A-9], the pIC50 in the series with TNF a was 6.40. Still for that read-out and setting: the result for `Cc1n[nH]c(-c2ccc(-c3ccccc3)cc2)c1-c1ccncc1` [Example A-12, 4-[5-[(1,1′-biphenyl)-4-yl]-3-methyl-1H-pyrazol-4-yl]pyridine] reads 5.07. In the case of `Cc1[nH]nc(-c2ccc(F)cc2)c1-c1ccncc1` [Example 4, 4-[3-(4-fluorophenyl)-5-methyl-1H-pyrazol-4-yl)pyridine], the pIC50 with TNF-α is 6.65; in the series on TNF a, 7.00. For `Cc1n[nH]c(-c2cccc(Oc3ccccc3)c2)c1-c1ccncc1` [Example A-13], in the series on TNF a, the pIC50 is 5.32.

As to `Cc1cccc(-c2[nH]nc(C(F)(F)F)c2-c2ccncc2)c1` [Example A-22, 4-[5-(3-methylphenyl)-3-(trifluoromethyl)-1H-pyrazol-4-yl]pyridine], the melting point is 237 to 239 °C. Further, the pIC50 with TNF a is 5.49.

The values are drawn from patent publication US6525059B1, “Substituted pyrazoles as p38 kinase inhibitors” (G. D. Searle & Company, priority 1998, dated 2003).
